“And” between values parts separate entries of the source, which are not always exact repeats. Identical values can stand only once. “Also recorded” adds a separate entry of the source. Like-named read-outs stand apart in the source and are kept apart here.
How the values were obtained:
[1] = rat plasma, 37° C., incubation time 0 hr (normalization point)
[2] = target: T1, hNav1.7 (Homo sapiens, UniProt Q15858); test: cell-based; conditions: ratio of IonWorks Quattro IC50 values, Nav1.4 over Nav1.7
T1 sequence (Q15858 whole entry): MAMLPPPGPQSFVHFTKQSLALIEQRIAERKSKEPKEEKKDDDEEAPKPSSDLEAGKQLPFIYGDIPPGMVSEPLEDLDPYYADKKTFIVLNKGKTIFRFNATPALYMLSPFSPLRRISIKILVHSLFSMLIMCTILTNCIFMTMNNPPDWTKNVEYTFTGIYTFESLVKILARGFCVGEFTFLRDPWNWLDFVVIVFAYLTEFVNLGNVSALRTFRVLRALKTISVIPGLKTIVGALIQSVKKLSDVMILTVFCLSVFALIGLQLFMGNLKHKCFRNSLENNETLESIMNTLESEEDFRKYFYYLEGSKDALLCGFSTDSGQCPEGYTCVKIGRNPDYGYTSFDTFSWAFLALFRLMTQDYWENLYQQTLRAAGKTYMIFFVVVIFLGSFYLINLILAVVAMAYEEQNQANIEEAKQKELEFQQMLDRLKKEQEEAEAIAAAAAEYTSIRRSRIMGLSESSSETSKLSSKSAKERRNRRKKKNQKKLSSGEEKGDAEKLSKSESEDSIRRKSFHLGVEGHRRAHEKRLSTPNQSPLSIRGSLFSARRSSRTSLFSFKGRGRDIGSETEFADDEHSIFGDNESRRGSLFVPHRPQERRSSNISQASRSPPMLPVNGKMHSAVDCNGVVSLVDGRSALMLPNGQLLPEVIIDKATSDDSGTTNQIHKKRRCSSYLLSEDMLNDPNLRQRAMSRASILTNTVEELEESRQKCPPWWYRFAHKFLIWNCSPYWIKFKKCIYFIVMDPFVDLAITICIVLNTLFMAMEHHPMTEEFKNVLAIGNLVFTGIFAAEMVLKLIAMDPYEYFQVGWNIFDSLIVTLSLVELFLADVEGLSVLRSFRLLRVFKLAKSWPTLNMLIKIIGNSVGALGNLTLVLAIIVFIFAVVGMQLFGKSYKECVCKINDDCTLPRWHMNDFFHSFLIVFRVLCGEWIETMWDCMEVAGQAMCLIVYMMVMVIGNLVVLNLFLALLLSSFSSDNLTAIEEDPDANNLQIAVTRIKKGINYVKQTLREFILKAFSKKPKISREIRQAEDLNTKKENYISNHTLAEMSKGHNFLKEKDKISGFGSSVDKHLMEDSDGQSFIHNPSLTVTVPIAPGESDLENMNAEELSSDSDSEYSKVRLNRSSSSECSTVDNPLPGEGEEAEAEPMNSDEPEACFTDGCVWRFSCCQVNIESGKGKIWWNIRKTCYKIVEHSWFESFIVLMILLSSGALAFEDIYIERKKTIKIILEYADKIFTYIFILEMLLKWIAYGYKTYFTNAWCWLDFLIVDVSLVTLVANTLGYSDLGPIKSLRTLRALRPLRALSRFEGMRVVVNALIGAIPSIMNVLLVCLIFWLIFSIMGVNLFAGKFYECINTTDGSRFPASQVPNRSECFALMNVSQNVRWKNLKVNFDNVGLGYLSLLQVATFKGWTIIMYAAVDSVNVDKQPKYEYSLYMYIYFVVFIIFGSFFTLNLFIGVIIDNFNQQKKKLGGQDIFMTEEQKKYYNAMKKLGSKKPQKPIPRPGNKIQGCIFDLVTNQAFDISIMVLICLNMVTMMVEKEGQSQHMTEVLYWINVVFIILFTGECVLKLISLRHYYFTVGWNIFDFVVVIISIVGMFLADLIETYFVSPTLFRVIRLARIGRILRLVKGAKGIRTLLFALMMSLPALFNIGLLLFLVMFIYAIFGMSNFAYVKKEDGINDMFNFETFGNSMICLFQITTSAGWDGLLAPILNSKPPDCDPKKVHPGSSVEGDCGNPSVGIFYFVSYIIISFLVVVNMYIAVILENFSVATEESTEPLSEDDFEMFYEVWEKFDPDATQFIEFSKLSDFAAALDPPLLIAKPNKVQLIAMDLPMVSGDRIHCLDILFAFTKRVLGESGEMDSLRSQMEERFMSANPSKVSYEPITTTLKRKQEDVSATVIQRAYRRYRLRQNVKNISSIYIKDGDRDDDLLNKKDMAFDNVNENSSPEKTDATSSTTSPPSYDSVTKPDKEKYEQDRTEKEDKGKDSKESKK

[3] = human plasma, 37° C., incubation 0 hr (normalisation point)
[4] = cyno plasma, 37° C., incubation 0 hr (normalisation point)
[5] = mouse plasma, 37° C., incubation 0 hr (normalisation point)
[6] = system: TTX-sensitive sodium currents in adult rat DRG neurons; conditions: cited from earlier work
[7] = system: TTX-resistant VGSCs; conditions: cited from earlier work
[8] = target: NaV1.7 (Homo sapiens, UniProt Q15858); conditions: read-out: EC50, impairs fast inactivation; cited from earlier work
Sequence of NaV1.7 (Q15858 whole entry): as above

[9] = target: T2, hNav1.5 (Homo sapiens, UniProt Q14524); test: cell-based; conditions: IonWorks Quattro; Table 6; read-out: IC50 (μM) Nav1.5
T2 sequence (Q14524 whole entry): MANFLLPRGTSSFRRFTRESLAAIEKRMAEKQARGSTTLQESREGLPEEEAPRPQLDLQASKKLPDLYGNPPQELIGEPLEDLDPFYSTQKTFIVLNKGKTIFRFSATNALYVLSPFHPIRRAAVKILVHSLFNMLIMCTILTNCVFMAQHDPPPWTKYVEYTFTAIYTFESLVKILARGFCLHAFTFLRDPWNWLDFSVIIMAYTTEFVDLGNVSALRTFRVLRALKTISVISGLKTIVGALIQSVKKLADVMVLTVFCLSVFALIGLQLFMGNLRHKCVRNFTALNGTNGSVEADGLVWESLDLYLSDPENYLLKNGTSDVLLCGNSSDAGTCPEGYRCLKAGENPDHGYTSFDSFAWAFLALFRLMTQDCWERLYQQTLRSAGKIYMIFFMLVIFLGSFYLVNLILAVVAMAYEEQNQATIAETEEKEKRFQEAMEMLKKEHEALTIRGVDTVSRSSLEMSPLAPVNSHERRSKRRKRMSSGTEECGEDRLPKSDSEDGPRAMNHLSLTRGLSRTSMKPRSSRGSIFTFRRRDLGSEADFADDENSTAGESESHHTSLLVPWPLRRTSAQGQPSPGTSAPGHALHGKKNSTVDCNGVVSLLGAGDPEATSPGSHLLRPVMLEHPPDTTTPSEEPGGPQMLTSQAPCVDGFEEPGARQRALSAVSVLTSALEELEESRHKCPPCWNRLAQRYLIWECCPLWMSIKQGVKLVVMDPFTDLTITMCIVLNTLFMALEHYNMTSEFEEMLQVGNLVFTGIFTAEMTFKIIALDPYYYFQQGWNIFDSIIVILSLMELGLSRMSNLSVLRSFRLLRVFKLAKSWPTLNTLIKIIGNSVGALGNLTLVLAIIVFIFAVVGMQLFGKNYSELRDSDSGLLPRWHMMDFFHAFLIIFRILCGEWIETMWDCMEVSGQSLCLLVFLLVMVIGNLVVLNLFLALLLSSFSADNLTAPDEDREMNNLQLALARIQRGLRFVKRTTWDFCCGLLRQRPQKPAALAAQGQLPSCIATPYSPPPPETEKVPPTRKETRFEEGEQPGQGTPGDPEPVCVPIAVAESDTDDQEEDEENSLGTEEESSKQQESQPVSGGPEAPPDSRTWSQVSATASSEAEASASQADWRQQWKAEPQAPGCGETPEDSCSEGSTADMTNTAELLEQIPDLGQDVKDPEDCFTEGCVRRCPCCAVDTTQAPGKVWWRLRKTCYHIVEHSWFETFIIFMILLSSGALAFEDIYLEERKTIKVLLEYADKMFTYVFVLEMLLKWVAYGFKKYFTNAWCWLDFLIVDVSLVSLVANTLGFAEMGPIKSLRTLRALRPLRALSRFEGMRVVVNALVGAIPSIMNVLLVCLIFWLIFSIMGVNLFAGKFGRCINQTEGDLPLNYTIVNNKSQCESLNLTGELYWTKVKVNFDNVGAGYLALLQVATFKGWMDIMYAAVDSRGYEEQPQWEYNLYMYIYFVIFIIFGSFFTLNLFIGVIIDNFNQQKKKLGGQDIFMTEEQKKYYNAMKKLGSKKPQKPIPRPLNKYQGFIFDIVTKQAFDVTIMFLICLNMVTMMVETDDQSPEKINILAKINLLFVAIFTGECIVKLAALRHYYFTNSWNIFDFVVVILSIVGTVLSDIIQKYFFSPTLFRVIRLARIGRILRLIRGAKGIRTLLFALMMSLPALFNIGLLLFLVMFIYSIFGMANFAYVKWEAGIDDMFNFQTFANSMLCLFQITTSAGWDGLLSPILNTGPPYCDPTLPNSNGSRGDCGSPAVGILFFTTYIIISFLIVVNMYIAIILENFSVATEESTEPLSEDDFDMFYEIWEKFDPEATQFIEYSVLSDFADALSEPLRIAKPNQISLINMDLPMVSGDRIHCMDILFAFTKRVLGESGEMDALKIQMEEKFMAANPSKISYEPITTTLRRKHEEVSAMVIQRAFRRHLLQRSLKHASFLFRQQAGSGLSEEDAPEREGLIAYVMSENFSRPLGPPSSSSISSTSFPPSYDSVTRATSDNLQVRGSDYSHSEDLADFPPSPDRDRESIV

[10] = target: T1, hNav1.7; test: cell-based; format: cell-based
[11] = target: hNav1.8 (Homo sapiens, UniProt Q9Y5Y9); test: cell-based; format: cell-based
[12] = system: hNav1.8; test: cell-based; format: cell-based, human; conditions: hNav1.8 / hNav1.7
[13] = target: T2, hNav1.5; test: cell-based; format: cell-based
[14] = target: hNav1.4 (Homo sapiens, UniProt P35499); test: cell-based; format: cell-based; conditions: 100 nM; held at −83 mV
[15] = target: hNav1.3 (Homo sapiens, UniProt Q9NY46); test: cell-based; format: cell-based; conditions: 300 nM; held at −80 mV
[16] = system: TTX-sensitive Nav channels in mouse DRG neuron; conditions: for 1.x/1.7: mTTX-S / hNav1.7
[17] = system: TTX-resistant Nav channels in mouse DRG neuron
[18] = system: rats; conditions: rat, in vivo; cited from earlier work
[19] = system: rats; conditions: rat, in vivo, 0.1 mg/kg; cited from earlier work

CC[C@H](C)[C@H](NC(=O)[C@H](CCCCN)NC(=O)[C@H](CCCNC(=N)N)NC(=O)[C@@H]1CSSC[C@@H]2NC(=O)[C@H](C)NC(=O)[C@H](CCCNC(=N)N)NC(=O)[C@H](CCCCN)NC(=O)[C@H](CO)NC(=O)[C@H](CC(=O)O)NC(=O)[C@@H]3CSSC[C@H](NC(=O)[C@H](CCC(=O)O)NC(=O)[C@H](CC(C)C)NC(=O)CNC(=O)[C@H](CCC(=O)O)NC(=O)[C@H](CSSC[C@H](NC(=O)[C@@H](N)Cc4ccc(O)cc4)C(=O)N[C@@H](CCC(N)=O)C(=O)N[C@@H](CCCCN)C(=O)N[C@@H](Cc4c[nH]c5ccccc45)C(=O)N[C@@H](CCSC)C(=O)N[C@@H](Cc4c[nH]c5ccccc45)C(=O)N[C@@H]([C@@H](C)O)C(=O)N3)NC2=O)C(=O)N[C@@H](CCCCN)C(=O)N[C@@H](CC(C)C)C(=O)N[C@@H](Cc2c[nH]c3ccccc23)C(=O)N1)C(=O)N[C@@H](Cc1c[nH]c2ccccc12)C(N)=O [SEQ ID NO: 112, [Glu20,Trp29]JzTx-V(1-29)]
% Peptide Remaining [1]: 100%

CC[C@H](C)[C@H](NC(=O)[C@H](CO)NC(=O)[C@H](CCCCN)NC(=O)[C@H](CCCNC(=N)N)NC(=O)[C@@H]1CSSC[C@@H]2NC(=O)[C@H](C)NC(=O)[C@H](CCCNC(=N)N)NC(=O)[C@H](CCCCN)NC(=O)[C@H](CO)NC(=O)[C@H](CC(=O)O)NC(=O)[C@@H]3CSSC[C@H](NC(=O)[C@H](CCC(=O)O)NC(=O)[C@H](CC(C)C)NC(=O)CNC(=O)[C@H](CCC(=O)O)NC(=O)[C@H](CSSC[C@H](NC(=O)[C@@H](N)Cc4ccc(O)cc4)C(=O)N[C@@H](CCC(N)=O)C(=O)N[C@@H](CCCCN)C(=O)N[C@@H](Cc4c[nH]c5ccccc45)C(=O)N[C@@H](CCSC)C(=O)N[C@@H](Cc4c[nH]c5ccccc45)C(=O)N[C@@H]([C@@H](C)O)C(=O)N3)NC2=O)C(=O)N[C@@H](CCCCN)C(=O)N[C@@H](CC(C)C)C(=O)N[C@@H](Cc2c[nH]c3ccccc23)C(=O)N1)C(N)=O [SEQ ID NO: 138, [Glu20,Ser28]JzTx-V(1-29)]
% Peptide Remaining [1]: 100%

CC[C@H](C)[C@H](NC(=O)[C@H](CO)NC(=O)[C@H](CCCCN)NC(=O)[C@H](CCCNC(=N)N)NC(=O)[C@@H]1CSSC[C@@H]2NC(=O)[C@H](C)NC(=O)[C@H](CCCNC(=N)N)NC(=O)[C@H](CCCCN)NC(=O)[C@H](CO)NC(=O)[C@H](CC(=O)O)NC(=O)[C@@H]3CSSC[C@H](NC(=O)[C@H](CCC(=O)O)NC(=O)[C@H](CC(C)C)NC(=O)CNC(=O)[C@H](CCC(=O)O)NC(=O)[C@H](CSSC[C@H](NC(=O)[C@@H](N)Cc4ccc(O)cc4)C(=O)N[C@@H](CCC(N)=O)C(=O)N[C@@H](CCCCN)C(=O)N[C@@H](Cc4c[nH]c5ccccc45)C(=O)N[C@@H](CCSC)C(=O)N[C@@H](Cc4c[nH]c5ccccc45)C(=O)N[C@@H]([C@@H](C)O)C(=O)N3)NC2=O)C(=O)N[C@@H](CCCCN)C(=O)N[C@@H](CC(C)C)C(=O)N[C@@H](Cc2c[nH]c3ccccc23)C(=O)N1)C(N)=O [compound 138]
Nav1.4/Nav1.7 [2]: 62 and 34
% Peptide Remaining [3]: 100%
% Peptide Remaining [4]: 100%
% Peptide Remaining [5]: 100%

Huwentoxin-IV [HWTX-IV]
IC50 [6]: 30 nM
effect on TTX-resistant VGSCs [7]: no effect

OD1 [OD 1]
EC50 [8]: 4.5 nM

CC[C@H](C)[C@H](NC(=O)[C@@H](NC(=O)[C@H](CCCCN)NC(=O)[C@H](CCCNC(=N)N)NC(=O)[C@@H]1CSSC[C@@H]2NC(=O)[C@H](C)NC(=O)[C@H](CCCNC(=N)N)NC(=O)[C@H](CCCCN)NC(=O)[C@H](CO)NC(=O)[C@H](CC(=O)O)NC(=O)[C@@H]3CSSC[C@H](NC(=O)[C@H](CCCNC(=N)N)NC(=O)[C@H](CC(C)C)NC(=O)CNC(=O)[C@H](CCC(=O)O)NC(=O)[C@H](CSSC[C@H](NC(=O)[C@@H](N)Cc4ccc(O)cc4)C(=O)N[C@@H](CCC(N)=O)C(=O)N[C@@H](CCCCN)C(=O)N[C@@H](Cc4c[nH]c5ccccc45)C(=O)N[C@@H](CCSC)C(=O)N[C@@H](Cc4c[nH]c5ccccc45)C(=O)N[C@@H]([C@@H](C)O)C(=O)N3)NC2=O)C(=O)N[C@@H](CCCCN)C(=O)N[C@@H](CC(C)C)C(=O)N[C@@H](Cc2c[nH]c3ccccc23)C(=O)N1)[C@@H](C)CC)C(N)=O [compound 2]
IC50 [9]: 3 µM and 3.5 µM
inhibition of hNav1.7 current, in words ([10]; 1 nM as printed): complete inhibition
block of hNav1.7 current, in words ([10]; 1 μM): blocked all Nav1.7 current
block of TTX-resistant hNav1.8 current [11]: approximately 50%
inhibition of hNav1.8 current, in words [11]: only partial inhibition
1.x/1.7 ([12]; fully non-inactivated): 5724
1.x/1.7 ([12]; partially inactivated): 3282
block of hNav1.5 current, in words ([13]; 3 μM, held at −85 mV): blocked most Nav1.5 current; also recorded: nearly complete inhibition
IC50 ([13]; manual WCPC, ~20% inactivation, read-out: IC50 of hNav1.5 inhibition): 426 nM
block of hNav1.4 current, in words [14]: completely blocked Nav1.4 current; also recorded: complete inhibition
block of hNav1.3 current, in words [15]: completely blocked Nav1.3 current; also recorded: complete inhibition
1.x/1.7 ([16]; fully non-inactivated): 530
block of TTX-sensitive Nav current, in words ([16]; increasing concentrations, time course): blocked nearly all TTX-sensitive Nav current
1.x/1.7 ([16]; partially inactivated): 111
IC50 [17]: > 1000 nM
IC50 of TTX-resistant sodium channel current inhibition [17]: not measurable

YCQKWMWTCDSERKCCEGMVCRLWCKKKLW [ProTx-II]
efficacy in mechanical hyperalgesia study [18]: not efficacious
tolerability [19]: lethal
